Laboratory results reported in patent US20030181376A1, “Control of crop pests & animal parasites through direct neuronal uptake” (priority 2000, published 2003).
Read-outs that look alike come from different tables or passages of the source.

Key:
Assay type in all cases: in vivo
[1] = system: Heterodera glycines; experiment: Behavioural bioassay: orientation of H. glycines juveniles to an attractant disc (root exudate) after pre-incubation; conditions: for EC50: read-out: concentration giving 50% reduction in attraction of H. glycines to an attractant
Experimental: This assay was modified from that used by Grundler et al (Parasitology 103, 149-155; 1991). Soybean plants were grown in pots containing perlite in a tropical glasshouse until the root system was well established. Plants were carefully washed free of the perlite in running water and then several plants were placed in 200 cm3 dH2O in a conical flask which was covered in foil to keep light off the roots and then incubated in a Sanyo plant growth cabinet (16 hr light 24° C., 8 hr dark 20° C.) for 48hrs. The root exudate was collected and filter sterilised through 0.45 μm syringe filter.
Agarose discs covered in either dH2O or root exudate were made as follows. Agarose (3 ml, 1.5% solution made in dH2O) was poured into 6 cm petri dishes and allowed to surface dry. One ml of root exudate or dH2O was pipetted onto the plates, the surface covered by swirling and then left to completely evaporate. A cork borer was used to cut out 6 mm discs from the plate.
The oxime carbamate nematicide Aldicarb was obtained by putting 1 g Temik (10G, Rhône-Poulenc), in 10 ml chloroform to dissociate the oxime carbamate from its inert carrier. After 1 hour particulate material was removed by centrifugation. 100, 10 or 1 μl aliquots of the chloroform/aldicarb solution were pipetted into 1.5 ml microtubes and left to evaporate in a fume hood. This leaves 1, 0.1 and 0.01 mg aldicarb respectively in each tube. Addition of 1 ml dH2O to these tubes provides solutions of […] respectively.
Aliquots of juveniles of H. glycines were incubated for 16 hours in a range of concentrations of aldicarb, or in peptides generated that recognise the same acetylcholinesterase (AChE) target as aldicarb (see example IV). The effect of different concentrations of aldicarb or peptides on chemoreception was measured. Control worms were incubated in either water or PBS for the peptide experiments.
Treated nematode juveniles (approximately 300) in small volumes (typically 20 μl) dH2O were placed in the centre of 3.5 cm diameter petri dishes containing 1.5 ml 1.5% agarose. After evaporation of the water the worms were left for 1 hour to randomly distribute over the plate. A root exudate and a water agarose test disc were placed onto the plate equally spaced (5 mm) from the centre. The plates were left for 1 hour at room temperature in the dark. The experiments were carried out in replicates of 8-10 per concentration of aldicarb or peptide assayed. Controls in which nematodes were not treated with any chemical or peptide mimetic were also used for each experimental day to obtain a 100% rate of attraction. This allowed measurements of the extent of chemoattraction mediated by a test compound on any day.
The number of worms under each disc was counted using a dissecting microscope. In control experiments typically 2-4 times as many worms were counted under the root exudate disc as were under the water control disc. The numbers of responders minus the number under the control disc was used to calculate a response. With ˜300 animals on the plate the difference was around 40-80. The difference between the numbers under the attractant and the control discs was used to define the maximum response on that day of experiments.
Various concentrations of these compounds were tested with a modified bioassay. The data sets were analysed using probit analysis within a standard statistical package (SPSS) installed on a personal computer. […] Even higher concentrations of aldicarb and both AChE binding peptides were needed to inhibit movement than required to disrupt chemoreception.
Freshly hatched H. glycines were incubated for 16 hours at room temperature in various concentrations of Levamisole. They were tested using the bioassay in example 3.

[2] = system: Heterodera glycines and Globodera pallida; experiment: Behavioural bioassay, pooled data of H. glycines and G. pallida after pre-incubation in levamisole mimetic peptide; conditions: 16 h pre-treatment at 1×10^−6 M; data of two species pooled; values>1 indicate a chemoreceptive response
Experimental: (§1) The number of worms under each disc was counted using a dissecting microscope. […] The numbers of responders minus the number under the control disc was used to calculate a response. […] The difference between the numbers under the attractant and the control discs was used to define the maximum response on that day of experiments.
(§2) 50 mM CaCl2 was used as an attractant with the agarose discs. Those assays were carried out at 27° C. […] The peptide was also tested against the potato cyst nematode Globodera pallida using the same methods as described for H. glycines. G. pallida was incubated for 16 h in a solution containing the constrained peptide at 1.242×10^−8 M at room temperature. […]

[3] = system: Globodera pallida; experiment: Behavioural bioassay: orientation of G. pallida to an attractant disc (50 mM ZnCl2) after pre-incubation; conditions: 16 h pre-treatment at 1.242×10^−8 M
Experimental: as §1, §2

[4] = incubation for 16 hours, probit analysis

Q: With `c1ccc([C@H]2CN3CCSC3=N2)cc1` [Levamisole] as the compound, how does the signs of paralysis ([1]; 16 hours at room temperature in various concentrations) read?
A: did not show any signs of paralysis

Q: And the inhibition of chemoreception ([1]; 16 hours at room temperature in various low concentrations, FIG. 5)?
A: inhibit chemoreception in a dose-dependent manner

Q: SVSVGMKPSPRP [linear 12 mer peptide] was tested. Which EC50 [1, 4] did it give?
A: 3680 nM

Q: Which “mean value ratio of nematodes under the disc with the attractant rather than without it” value [2] does the source give for CTTMHPRLC here?
A: 1.03±0.11

Q: And the “ratio of nematodes under attractant disc versus control disc, 3 hours after the start of the bioassay” value ([1]; H. glycines, 16 h pre-treatment at 1×10^−6 M, 3 hours after start of the bioassay)?
A: 1.24±0.11

Q: Which results are given for `CNC(=O)O/N=C/C(C)(C)SC` [aldicarb, Aldicarb]?
A: disruption of chemosensory attraction relative to paralysis ([1]; H. glycines, 16 hours incubation): disrupt chemosensory attraction completely at concentrations lower than those which cause paralysis; EC50 ([1]; Heterodera glycines, 16 h): 0.0011 ± 0.00306 nM

Q: With CHNSHIRWC [control peptide] as the compound, how does the loss of chemoreception ([1]; incubation at 2 μM) read?
A: no loss of chemoreception

Q: What does the source list for CSINWRHHC [constrained 7 mer peptide]?
A: mean value ratio of nematodes under the disc with the attractant rather than without it ([3]; room temperature, bioassay at 20° C., 50 mM ZnCl2, values>1 indicate a chemoreceptive response): 0.77±0.08; ratio of nematodes under attractant disc versus control disc, 3 hours after the start of the bioassay ([3]; 3 hours after start of the bioassay): 0.78±0.06; EC50 [1, 4]: 2.16 nM
